A short description of the first series: in vitro. As to conditions: human, hela cells, % viability.
With `O=C(CN(c1ccccc1)S(=O)(=O)c1ccccc1[N+](=O)[O-])Nc1ccc(I)cc1` [CBK263755], the viability at 28.5 h, 10 µM is 58.3%.

On to `Cc1ccc(NCc2nc3ccccc3n2Cc2ccccc2)cc1C` [CBK263756], for which the viability at 28.5 h, 10 µM was found to be 98.4%.

For `COc1cccc(N(CC(=O)Nc2ccc(C)c(C)c2)S(=O)(=O)c2ccc(C)cc2)c1` [CBK263761], the viability at 28.5 h, 10 µM was 103%.

Regarding `COc1cc(/C=N/n2cnnc2)ccc1OCCOc1ccc(C(C)(C)C)cc1` [CBK263762], the viability at 28.5 h, 10 µM was 88.8%.

`O=C(COc1ccc2ccccc2c1)Nc1ccc(S(=O)(=O)N2CCCCC2)cc1` [CBK263765]: the viability at 28.5 h, 10 µM was found to be 118%.

Regarding `COc1ccc(C(=O)C2=C(O)C(=O)N(CCCO)C2c2ccc(Br)cc2)cc1` (stereo not drawn) [CBK263769], the viability at 28.5 h, 10 µM stood at 95.5%.

As for `CS(=O)(=O)N(CC(=O)NC1CCCCC1)c1cccc2ccccc12` [CBK263770], the viability at 28.5 h, 10 µM stood at 83.9%.

As to `NS(=O)(=O)c1ccc(CCNC(=O)c2ccc([N+](=O)[O-])cc2)cc1` [CBK263773], the viability at 28.5 h, 10 µM was 104%.

For the compound `COc1ccc(C2C(C(C)=O)=C(O)C(=O)N2CCCC(=O)O)cc1` (stereo not drawn) [CBK263774], the viability at 28.5 h, 10 µM turned out to be 100%.

With `Cc1ccc2nsnc2c1NC(=O)COc1ccccc1[N+](=O)[O-]` [CBK263779], the viability at 28.5 h, 10 µM came out at 92.7%.

For `Cc1ccc(S(=O)(=O)/N=C(/NCc2ccc(Cl)cc2)Nc2nc(C)cc(C)n2)cc1` [CBK263785], the viability at 28.5 h, 10 µM came out at 102%.

`Cc1cc2c(cc1C)N(C(=O)CSc1ncn[nH]1)C(C)(C)c1ssc(=S)c1-2` [CBK263786]: the viability at 28.5 h, 10 µM is 96.3%.

Take `O=C(C1=C(O)C(=O)N(c2ccc([N+](=O)[O-])cc2)C1c1ccccc1)c1ccccc1` (stereo not drawn) [CBK263787]: the viability at 28.5 h, 10 µM was 94.4%.

Take `O=C(Cn1c2ccccc2c2ccccc21)Sc1nc2ccccc2[nH]1` [CBK263788]: the viability at 28.5 h, 10 µM came out at 103%.

`O=C(CN1C(=O)c2ccccc2C1=O)Nn1cnnc1` [CBK263789]: the viability at 28.5 h, 10 µM came out at 99.6%.

For `COc1cccc(N(CC(=O)Nc2ccccc2Cl)S(=O)(=O)c2ccc(C)cc2)c1` [CBK263791], the viability at 28.5 h, 10 µM was 93.4%.

Regarding `O=C(Nc1cccc2nsnc12)c1ccc(Cl)cc1` [CBK263793], the viability at 28.5 h, 10 µM stood at 96.1%.

As to `O=C(O)CN1C(=O)C(O)=C(C(=O)c2ccc(Cl)cc2)C1c1ccccc1[N+](=O)[O-]` (stereo not drawn) [CBK263794], the viability at 28.5 h, 10 µM was 98.5%.

Regarding `Nc1c(C(=O)O)nnn1Cc1ccccc1` [CBK263796], the viability at 28.5 h, 10 µM was 95.6%.

Turning to `O=C1CC(Sc2ccccc2)C(=O)N1c1ccc(Cc2ccc(N3C(=O)CC(Sc4ccccc4)C3=O)cc2)cc1` (stereo not drawn) [CBK263797], the viability at 28.5 h, 10 µM came to 110%.

Take `CCOc1ccccc1N(CC(=O)Nc1ccc(C)cc1C)S(C)(=O)=O` [CBK263799]: the viability at 28.5 h, 10 µM was 96%.

As to `O=C(CCSc1ccc(Cl)cc1)NCCc1ccccc1` [CBK263800], the viability at 28.5 h, 10 µM was 86.4%.

For `O=C(COc1ccc2ccccc2c1)Nc1ccc(S(=O)(=O)N2CCc3ccccc32)cc1` [CBK263802], the viability at 28.5 h, 10 µM turned out to be 91.5%.

Regarding `O=C(O)c1ccc(Nc2ncnc3c2cnn3Cc2ccccc2)cc1` [CBK263803], the viability at 28.5 h, 10 µM was found to be 92.1%.

On to `O=C(CSC1=NC(=O)C(c2ccccc2)C(=O)N1)NC1CCCCC1` (stereo not drawn) [CBK263804], for which the viability at 28.5 h, 10 µM amounted to 103%.

As to `CN(C)CCCNC(=O)CCc1ccccc1` [CBK263806], the viability at 28.5 h, 10 µM came to 93%.

Consider `O=C(O)CCCN1C(=O)C(O)=C(C(=O)c2ccc([N+](=O)[O-])cc2)C1c1ccccc1F` (stereo not drawn) [CBK263810], for which the viability at 28.5 h, 10 µM was 97.8%.

As for `CC(Oc1ccccc1)C(=O)NCCN1CCOCC1` (stereo not drawn) [CBK263812], the viability at 28.5 h, 10 µM stood at 94.1%.

With `CCOc1cc(/C=C2\SC(=N)NC2=O)ccc1OCc1ccc(Br)cc1` [CBK263813], the viability at 28.5 h, 10 µM was 97.7%.

Turning to `Cc1ccc(OCC(=O)Nc2cccc3nsnc23)c(C)c1` [CBK263816], the viability at 28.5 h, 10 µM is 102%.

In the case of `COC(=O)c1ccccc1NC(=O)CCSc1ccc(Cl)cc1` [CBK263817], the viability at 28.5 h, 10 µM came to 109%.

As for `COC(=O)c1ccccc1NC(=O)CSc1nc(C)cc(C)n1` [CBK263818], the viability at 28.5 h, 10 µM amounted to 96.2%.

With `O=[N+]([O-])c1ccc(N2CCN(S(=O)(=O)c3ccccc3)CC2)cc1Sc1cccc2cccnc12` [CBK263821], the viability at 28.5 h, 10 µM was determined as 100%.

With `Cc1ccc(C(=O)C2=C(O)C(=O)N(CCO)C2c2ccccc2[N+](=O)[O-])cc1` (stereo not drawn) [CBK263822], the viability at 28.5 h, 10 µM came out at 97.1%.

Regarding `COc1ccc(Cl)cc1NC(=O)C(=O)NCC1CCCO1` (stereo not drawn) [CBK263823], the viability at 28.5 h, 10 µM was 91.8%.

Consider `COc1ccccc1NC(=O)c1c(NC(=O)c2cc([N+](=O)[O-])ccc2Cl)sc2c1CCCC2` [CBK263827], for which the viability at 28.5 h, 10 µM was determined as 88.7%.

With `O=C(O)CSc1nnc(-c2sc3ccccc3c2Cl)n1-c1ccccc1` [CBK263830], the viability at 28.5 h, 10 µM turned out to be 92.9%.

As for `CC1(C)CC2CC(C)(CN2Cc2c(O)ccc3cc(-c4nc(-c5ccc(Br)cc5)cs4)c(=O)oc23)C1` (stereo not drawn) [CBK263831], the viability at 28.5 h, 10 µM is 103%.

For the compound `O=C(O)CSc1nnc(C2COc3ccccc3O2)n1-c1ccccc1` (stereo not drawn) [CBK263832], the viability at 28.5 h, 10 µM was 104%.

For the compound `COc1ccc(Cl)cc1NC(=O)C(=O)NCc1ccccn1` [CBK263837], the viability at 28.5 h, 10 µM was 90.2%.

Take `CCOC(=O)c1c(C)oc2ccc(O)c(CN3CCCCC3)c12` [CBK263838C]: the viability at 28.5 h, 10 µM stood at 103%.

Consider `CN(Cc1ccccc1)c1nc2ccccn2c(=O)c1/C=C1/SC(=S)N(CCc2ccccc2)C1=O` [CBK263839], for which the viability at 28.5 h, 10 µM amounted to 112%.

For `Cc1ccc(S(=O)(=O)NC(C)(C)C(=O)O)cc1` [CBK263840], the viability at 28.5 h, 10 µM turned out to be 88.8%.

For the compound `CCOC(=O)c1c(C)oc2ccc(OCC(=O)c3ccc(Br)cc3)cc12` [CBK263841], the viability at 28.5 h, 10 µM was 92.4%.

For `Cc1cccc(OC(=O)C2C(c3ccccc3)C(C(=O)O)C2c2ccccc2)c1` (stereo not drawn) [CBK263843], the viability at 28.5 h, 10 µM was determined as 94%.

Take `CC(C)(C)c1cc(C(=O)N/N=C/c2ccc(O)c([N+](=O)[O-])c2)[nH]n1` [CBK263844]: the viability at 28.5 h, 10 µM worked out at 98.4%.

On to `Cc1ccc(C2NS(=O)(=O)NC2=N)cc1` (stereo not drawn) [CBK263848], for which the viability at 28.5 h, 10 µM turned out to be 95.2%.

On to `Cc1cc(C)n(C(=O)CCC(=O)Nc2cccc(Cl)c2C)n1` [CBK263851], for which the viability at 28.5 h, 10 µM is 99.3%.

Turning to `Cc1ccccc1C1NS(=O)(=O)NC1=N` (stereo not drawn) [CBK263852], the viability at 28.5 h, 10 µM is 96.5%.

Turning to `Nc1nnnn1/N=C/c1cc(Cl)cc(Cl)c1OCc1ccc(Cl)cc1Cl` [CBK263853], the viability at 28.5 h, 10 µM came out at 107%.

Consider `Nc1nnc(Cn2c(-c3nonc3N)nc3ccccc32)s1` [CBK263854], for which the viability at 28.5 h, 10 µM came out at 117%.

Turning to `NS(=O)(=O)c1ccc(NC(=O)CC2SC(=O)NC2=O)cc1` (stereo not drawn) [CBK263855], the viability at 28.5 h, 10 µM amounted to 98.9%.

With `O=C(O)COc1ccc(C=C2C(=O)c3ccccc3C2=O)cc1Cl` [CBK263857], the viability at 28.5 h, 10 µM was found to be 87.3%.

On to `Cc1cc2nn(-c3ccccc3)nc2cc1NC(=O)c1ccc(-c2cccc([N+](=O)[O-])c2)o1` [CBK263859], for which the viability at 28.5 h, 10 µM turned out to be 99.6%.

Consider `O=C(CSc1ccccn1)Nc1ccc2ccccc2c1` [CBK263860], for which the viability at 28.5 h, 10 µM stood at 101%.

For the compound `CN1CCN(c2ccc(S(=O)(=O)Nc3cc(C(=O)O)cc(C(=O)O)c3)cc2[N+](=O)[O-])CC1` [CBK263862], the viability at 28.5 h, 10 µM was 96.8%.

With `Cc1ccc(-c2nc3ccccc3s2)cc1NC(=O)c1sc2ccccc2c1Cl` [CBK263865], the viability at 28.5 h, 10 µM was determined as 93.9%.

Take `COc1cc(CNC2CCCCC2)ccc1OCC(N)=O` [CBK263866]: the viability at 28.5 h, 10 µM was 90.9%.

In the case of `Cc1cccc(C2NS(=O)(=O)NC2=N)c1` (stereo not drawn) [CBK263868], the viability at 28.5 h, 10 µM is 98.3%.

Turning to `O=C(O)C1C(c2ccccc2)C(C(=O)Oc2cccc3ccccc23)C1c1ccccc1` (stereo not drawn) [CBK263869], the viability at 28.5 h, 10 µM is 110%.

Turning to `O=C(CN1C(=O)S/C(=C\C=C\c2ccccc2)C1=O)Nc1cccc2c1C(=O)c1ccccc1C2=O` [CBK263870], the viability at 28.5 h, 10 µM stood at 87.1%.

In the case of `O=C(Nc1ccc2oc(-c3cccnc3)nc2c1)c1ccc(-c2ccccc2OC(F)(F)F)o1` [CBK263872], the viability at 28.5 h, 10 µM stood at 86.5%.

With `CCOC(=O)C1=C(Nc2ccc([N+](=O)[O-])cc2)S/C(=C\c2ccc(O)c(OC)c2)C1=O` [CBK263873], the viability at 28.5 h, 10 µM turned out to be 89.3%.

As for `CC(/C=C1\SC(=S)N(CCC(=O)Nc2ccc(O)c(C(=O)O)c2)C1=O)=C\c1ccccc1` [CBK263875], the viability at 28.5 h, 10 µM came to 107%.

With `N#C/C(=C\c1ccc(Oc2ccc(C(F)(F)F)cc2[N+](=O)[O-])cc1)c1nc2ccccc2[nH]1` [CBK263878], the viability at 28.5 h, 10 µM turned out to be 92.4%.

For the compound `COc1ccc(C(=O)Nc2ccc(S(=O)(=O)Nc3nccs3)cc2)cc1I` [CBK263880], the viability at 28.5 h, 10 µM is 92.7%.

As for `CCCN1C(=O)N(CO)C2C1N(CO)C(=O)N2CCC` (stereo not drawn) [CBK263882], the viability at 28.5 h, 10 µM was found to be 101%.

For the compound `COc1ccc(CC(=O)Nc2ccc(Nc3ccccc3)cc2)cc1` [CBK263884], the viability at 28.5 h, 10 µM amounted to 114%.

For `CC1CCN(c2ccc(S(=O)(=O)Nc3cc(C(=O)O)cc(C(=O)O)c3)cc2[N+](=O)[O-])CC1` [CBK263886], the viability at 28.5 h, 10 µM was found to be 94.8%.

Turning to `COc1ccc(NCC(=O)N/N=C(\C)c2ccccc2O)cc1` [CBK263887], the viability at 28.5 h, 10 µM was 86.3%.

As to `CCCCc1c(C)nc2ccc(OC)cc2c1SCCC(=O)O` [CBK263888], the viability at 28.5 h, 10 µM amounted to 98.1%.

Staying with this series, now noted: human, hela cells, % viability, bulk resorufin, single well.
For `COc1ccc(N2C(=O)/C(=C/c3ccc(-c4cc(C(=O)O)ccc4Cl)o3)C(=O)NC2=S)cc1` [CBK263750], the viability at 28.5 h, 10 µM turned out to be 97.8%.

For the compound `COc1ccc(N2C(=O)/C(=C/c3cc(C)n(-c4ccc(N5CCOCC5)cc4)c3C)C(=O)NC2=S)cc1` [CBK263798], the viability at 28.5 h, 10 µM is 89.7%.

With `O=C1NC(=O)N(c2ccc3c(c2)OCO3)C(=O)/C1=C/c1ccc(OCc2cccc(C(=O)O)c2)cc1` [CBK263805], the viability at 28.5 h, 10 µM turned out to be 106%.

As for `O=C1NC(=O)N(c2ccc(O)cc2)C(=O)/C1=C/c1ccc(OCc2ccc(Cl)cc2Cl)cc1` [CBK263842], the viability at 28.5 h, 10 µM came out at 92.1%.

As usually defined, the viability is a read-out of living cells in per cent, often relative to untreated cells.

Values taken from PMC12040169 (PLOS Biology, 2025).
